This experiment deals with P388 leukemia ip, CD2F1 mice, survival T/C. The experiment is described as follows: NCI In Vivo Anticancer Drug Screen. Data for tumor model P388 Leukemia (intraperitoneal) in CD2F1 (CDF1) mice. Particulars: endpoint: median survival time, higher = longer survival. Summed up:
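Mice carrying the transplanted tumor received test compound or vehicle. Survival was recorded in each group, and the value is the treated-group measurement divided by that of the vehicle-treated control group.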

[1] abbreviates: dose: 50.0 mg/kg/injection, schedule: Q01DX009 (ip), vehicle: Klucel (hydroxypropylcellulose) (HPC).
The mark [2] stands for this setting: dose: 100.0 mg/kg/injection, schedule: Q01DX009 (ip), vehicle: Klucel (hydroxypropylcellulose) (HPC).
[3] abbreviates: dose: 200.0 mg/kg/injection, schedule: Q01DX009 (ip), vehicle: Klucel (hydroxypropylcellulose) (HPC).
The mark [4] stands for this setting: dose: 50.0 mg/kg/injection, schedule: Q01DX005 (ip), vehicle: saline with Tween-80.
The mark [5] stands for this setting: dose: 100.0 mg/kg/injection, schedule: Q01DX005 (ip), vehicle: saline with Tween-80.
Where [6] appears, read: dose: 200.0 mg/kg/injection, schedule: Q01DX005 (ip), vehicle: saline with Tween-80.
Setting [7] is: dose: 60.0 mg/kg/injection, schedule: Q01DX005 (ip), vehicle: Klucel (hydroxypropylcellulose) (HPC).
The mark [8] stands for this setting: dose: 120.0 mg/kg/injection, schedule: Q01DX005 (ip), vehicle: Klucel (hydroxypropylcellulose) (HPC).
Setting [9] is: dose: 50.0 mg/kg/injection, schedule: Q01DX005 (ip), vehicle: Klucel (hydroxypropylcellulose) (HPC).
Where [10] appears, read: dose: 100.0 mg/kg/injection, schedule: Q01DX005 (ip), vehicle: Klucel (hydroxypropylcellulose) (HPC).
[11] abbreviates: dose: 50.0 mg/kg/injection, schedule: Q01DX005 (ip), vehicle: saline.
[12] abbreviates: dose: 100.0 mg/kg/injection, schedule: Q01DX005 (ip), vehicle: saline.
Setting [13] is: dose: 200.0 mg/kg/injection, schedule: Q01DX005 (ip), vehicle: saline.

The structures appear in SMILES notation. Values joined by “and” are separate entries in the source; they are usually repeats but may differ in a detail not shown here. Equal values may be shown once. Toxic doses and inconclusive results are not listed.

For the molecule `O=C(Nc1ccc(C2=NCCCN2)cc1)c1ccc(NC(=O)c2ccc(C3=NCCCN3)cc2)cc1`, the T/C is 200 % of control (dose: 5.0 mg/kg/injection, schedule: Q01DX009 (ip), vehicle: saline); 250 % of control (dose: 10.0 mg/kg/injection, schedule: Q01DX009 (ip), vehicle: saline); 160 % of control (dose: 12.5 mg/kg/injection, schedule: Q04DX003 (ip), vehicle: saline); 186 % of control (dose: 20.0 mg/kg/injection, schedule: Q04DX003 (ip), vehicle: saline with Tween-80); 109 % of control (dose: 375.0 micrograms/kg/injection, schedule: Q04DX003 (ip), vehicle: saline); 100 % of control (dose: 750.0 micrograms/kg/injection, schedule: Q04DX003 (ip), vehicle: saline). For the setting “dose: 1500.0 micrograms/kg/injection, schedule: Q04DX003 (ip), vehicle: saline”, the T/C was 109 % of control.
Turning to `NNC(=O)COCC(=O)NN`, the T/C by setting is: (dose: 25.0 mg/kg/injection, schedule: Q01DX009 (ip), vehicle: Klucel (hydroxypropylcellulose) (HPC)) 106 % of control; under setting [1], 100 % of control; under setting [2], 104 % of control; under setting [3], 100 % of control.
With `CCOC(OCC)/C(=C\N(C)C)N=C(C#N)C#N`, the T/C reads like this: under setting [4], 113 % of control; under setting [5], 111 % of control.
In the case of `CC(C)C(Nc1ncnc2nc[nH]c12)C(=O)O` (stereo not given), the T/C runs as follows: under setting [4], 102 % of control; under setting [5], 102 % of control; under setting [6], 103 % of control.
On to `CCOc1ccc(N2C(=O)CC(Sc3ccccc3N)C2=O)cc1` (stereo not given), for which the T/C is 110 % of control (dose: 100.0 mg/kg/injection, schedule: Q01DX009 (ip), vehicle: saline with Tween-80); 115 % of control (dose: 200.0 mg/kg/injection, schedule: Q01DX009 (ip), vehicle: saline with Tween-80); 120 % of control (dose: 400.0 mg/kg/injection, schedule: Q01DX009 (ip), vehicle: saline with Tween-80).
For `O=C1OC(c2cccnc2)OC(c2ccccc2)=C1C(=O)c1ccccc1` (stereo not given), the T/C is 107 % of control under setting [7]; 98 % of control under setting [8]; 97 % of control (dose: 240.0 mg/kg/injection, schedule: Q01DX005 (ip), vehicle: Klucel (hydroxypropylcellulose) (HPC)).
For `O=C(c1ccc(CSc2ccc(Cl)cc2)o1)N1CCOCC1`, the T/C was 99 % of control under setting [4], 101 % of control under setting [5] and 91 % of control under setting [6].
Consider `O=C1NC(=O)C(Cc2ccc(N(CCO)CCO)cc2)(c2ccccc2)N1` (stereo not given), for which the T/C is 108 % of control and 109 % of control and 116 % of control under setting [9]; 111 % of control and 121 % of control under setting [10]; 117 % of control and 120 % of control (dose: 200.0 mg/kg/injection, schedule: Q01DX005 (ip), vehicle: Klucel (hydroxypropylcellulose) (HPC)); 110 % of control and 124 % of control (dose: 400.0 mg/kg/injection, schedule: Q01DX005 (ip), vehicle: Klucel (hydroxypropylcellulose) (HPC)).
For the molecule `Cc1cccc2c1C(=O)N(CC[P+](c1ccccc1)(c1ccccc1)c1ccccc1)C2=O`, the T/C reads like this: (dose: 0.78 mg/kg/injection, schedule: Q01DX009 (ip), vehicle: water) 111 % of control; (dose: 1.33 mg/kg/injection, schedule: Q01DX009 (ip), vehicle: water) 115 % of control; (dose: 2.0 mg/kg/injection, schedule: Q01DX009 (ip), vehicle: water) 119 % of control; (dose: 3.0 mg/kg/injection, schedule: Q01DX009 (ip), vehicle: water) 121 % of control.
Consider `Cc1c(C)[n+](=O)c2ccccc2n1[O-]`, for which the T/C runs as follows: under setting [11], 103 % of control; under setting [12], 108 % of control; under setting [13], 100 % of control.
With `COC(=O)NC(NC(=O)OC)C(F)(F)C(NC(=O)OC)NC(=O)OC`, the T/C reads like this: under setting [7], 96 % of control; under setting [8], 95 % of control.
Take `CCCCCCC1(/C=C\c2ccccc2Cl)OCCO1`: the T/C runs as follows: under setting [1], 103 % of control; under setting [2], 94 % of control; under setting [3], 108 % of control.
Take `O=C1C(Cl)=C(NCCCN(CCCNC2=C(Cl)C(=O)c3ccccc3C2=O)C2=C(Cl)C(=O)c3ccccc3C2=O)C(=O)c2ccccc21`: the T/C runs as follows: (dose: 50.0 mg/kg/injection, schedule: Q01DX009 (ip), vehicle: saline) 108 % of control and 118 % of control; (dose: 100.0 mg/kg/injection, schedule: Q01DX009 (ip), vehicle: saline) 109 % of control and 115 % of control; (dose: 200.0 mg/kg/injection, schedule: Q01DX009 (ip), vehicle: saline) 105 % of control and 108 % of control.
Consider `O=C(OCC1OC(n2cc(C(F)(F)F)c(=O)[nH]c2=O)CC1OC(=O)c1ccc([N+](=O)[O-])cc1)c1ccc([N+](=O)[O-])cc1` (stereo not given), for which the T/C by setting is: (dose: 12.0 mg/kg/injection, schedule: Q01DX005 (ip), vehicle: Klucel (hydroxypropylcellulose) (HPC)) 100 % of control; (dose: 25.0 mg/kg/injection, schedule: Q01DX005 (ip), vehicle: Klucel (hydroxypropylcellulose) (HPC)) 108 % of control; under setting [9], 105 % of control and 108 % of control; under setting [10], 107 % of control.
For the molecule `O=c1oc2c(Br)cccc2cc1-c1ccc(Br)c2ccccc12`, the T/C runs as follows: under setting [1], 101 % of control; under setting [2], 97 % of control; under setting [3], 93 % of control.
Consider `CSC(=S)n1nc(C)c(N=Nc2cccc(C)c2C)c1C`, for which the T/C is, setting by setting: (dose: 100.0 mg/kg/injection, schedule: Q04DX002 (ip), vehicle: Klucel (hydroxypropylcellulose) (HPC)) 96 % of control; (dose: 200.0 mg/kg/injection, schedule: Q04DX002 (ip), vehicle: Klucel (hydroxypropylcellulose) (HPC)) 96 % of control; (dose: 400.0 mg/kg/injection, schedule: Q04DX002 (ip), vehicle: Klucel (hydroxypropylcellulose) (HPC)) 100 % of control.
`CCN(CC)CCNc1cccc2c(C)cc(=O)[nH]c12`: the T/C runs as follows: under setting [4], 103 % of control; under setting [5], 101 % of control.
Regarding `CC(C)(C)C(=O)Nc1ccc(S(=O)(=O)Nc2ccc(N)cc2O)cc1`, the T/C was 112 % of control under setting [1], 97 % of control under setting [2] and 115 % of control under setting [3].
Consider `C/C=C1\CN2CC[C@H]1C[C@H]2[C@H](O)c1ccnc2ccc(NCCO)cc12`, for which the T/C was 94 % of control under setting [11], 99 % of control under setting [12] and 99 % of control under setting [13].
As for `C=C=C(COC(C)=O)ON1CCCCC1`, the T/C is 111 % of control under setting [11] and 111 % of control under setting [12].
Turning to `CC1C(=O)CCC2(C)CCC3C(OC(=O)C3(C)[Se]c3ccccc3)C12` (stereo not given), the T/C (dose: 100.0 mg/kg/injection, schedule: Q04DX002 (ip), vehicle: saline with Tween-80) was 97 % of control and the T/C (dose: 200.0 mg/kg/injection, schedule: Q04DX002 (ip), vehicle: saline with Tween-80) is 98 % of control.
Consider `[N-]=[N+]=CC(=O)CCC(=O)C=[N+]=[N-]`, for which the T/C is 123 % of control (dose: 0.75 mg/kg/injection, schedule: Q01DX009 (ip), vehicle: other); 101 % of control (dose: 0.78 mg/kg/injection, schedule: Q01DX007 (ip), vehicle: DMSO); 117 % of control (dose: 1.56 mg/kg/injection, schedule: Q01DX007 (ip), vehicle: DMSO); 170 % of control (dose: 3.0 mg/kg/injection, schedule: Q01DX009 (ip), vehicle: other); 104 % of control (dose: 6.0 mg/kg/injection, schedule: Q01DX009 (ip), vehicle: other); 158 % of control (dose: 6.25 mg/kg/injection, schedule: Q01DX007 (ip), vehicle: DMSO). Also, the T/C by setting is: (dose: 12.5 mg/kg/injection, schedule: Q01DX007 (ip), vehicle: DMSO) 93 % of control; (dose: 25.0 mg/kg/injection, schedule: Q01DX007 (ip), vehicle: DMSO) 93 % of control.
For the molecule `CC(=O)NCCc1nc(-c2nc(C(=O)NCCCCN)cs2)cs1`, the T/C by setting is: (dose: 12.5 mg/kg/injection, schedule: Q01DX009 (ip), vehicle: water) 100 % of control; (dose: 25.0 mg/kg/injection, schedule: Q01DX009 (ip), vehicle: water) 98 % of control and 109 % of control; (dose: 50.0 mg/kg/injection, schedule: Q01DX009 (ip), vehicle: water) 100 % of control and 113 % of control; (dose: 100.0 mg/kg/injection, schedule: Q01DX009 (ip), vehicle: water) 103 % of control and 119 % of control; (dose: 200.0 mg/kg/injection, schedule: Q01DX009 (ip), vehicle: water) 107 % of control; (dose: 400.0 mg/kg/injection, schedule: Q01DX009 (ip), vehicle: water) 104 % of control.
